Assays:
Assay in all cases: area under concentration-response curve (viability) (AUC (a.u.)); higher = less active
Settings in all cases: 48 h
[1] = system: NCI-H295R
How it was run: (§1)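 Three adrenocortical carcinoma cell lines were seeded at 500–1,000 cells/well in 5 µL medium in 1,536-well plates. 23 nL of each MIPE 5.0 library compound was added at 11 concentrations. After 48 h (per the protocol name), CellTiter-Glo was added for 15 minutes at room temperature and luminescence was read. Signals were normalised per plate to vehicle and empty-well controls. AC50 and area under the curve came from fitted concentration-response curves, keeping only inhibitory or non-responding curve classes.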

[2] = system: CU-ACC2
How it was run: as §1

[3] = system: CU-ACC1
How it was run: as §1

Compound	area under concentration-response curve [1]	area under concentration-response curve [2]	area under concentration-response curve [3]
CCN(CC)CCOc1ccc(Cc2ccccc2)cc1	503	526	454
CN(C)[C@H]\1[C@@H]2[C@@H](O)[C@H]3\C(=C(O)/[C@]2(O)C(=O)\C(=C1O)C(N)=O)C(=O)C4=C(C=CC=C4O)[C@@]3(C)O	530	625	593
N[C@@H]1CONC1=O	559	497	533
NC[C@H]1CC[C@H](C(=O)O)CC1	452	586	497
COC(=O)[C@@H](N)CCCNC(=N)N[N+](=O)[O-]	557	610	520
Cn1nccc1Nc1nccc(-c2cc3c(s2)C(C)(C)N(CCN2CCOCC2)C3=O)n1	544	589	528
C/C1=C2/[N]3[Co+]456([OH])<-[N]7=C1[C@@H](CCC(N)=O)C(C)(C)/C7=C/C1=[N]->4C(=C(/C)C4=[N]->5[C@@](C)([C@H]3[C@H](CC(N)=O)[C@@]2(C)CCC(=O)NC[C@@H](C)OP(=O)([O-])O[C@H]2[C@@H](O)[C@@H](n3c[n]->6c5cc(C)c(C)cc53)O[C@@H]2CO)[C@@](C)(CC(N)=O)[C@@H]4CCC(N)=O)/[C@@](C)(CC(N)=O)[C@@H]1CCC(N)=O	564	595	495
Cc1ccc(C(=O)Nc2ccc([S+](=O)([O-])O)c3cc([S+](=O)([O-])O)cc([S+](=O)([O-])O)c23)cc1NC(=O)c1cccc(NC(=O)Nc2cccc(C(=O)Nc3cc(C(=O)Nc4ccc([S+](=O)([O-])O)c5cc([S+](=O)([O-])O)cc([S+](=O)([O-])O)c45)ccc3C)c2)c1	488	488	420
N#Cc1ccnc(N2C(=O)CC[C@H]2C(=O)N(c2cncc(F)c2)[C@H](C(=O)NC2CC(F)(F)C2)c2ccccc2Cl)c1	560	613	486
CCO[C@@H]1OC(=O)C[C@@H]1NC(=O)[C@@H]1CCCN2C(=O)CC[C@H](NC(=O)c3nccc4ccccc34)C(=O)N12	553	594	568
NC/1=N/C(=O)C/2=C(/NCC3CN(CN23)C4=CC=C(C=C4)C(=O)N[C@@H](CCC(O)=O)C(O)=O)N1 (stereo partly specified)	526	565	475
Cc1noc(-c2ccc(CSCCC(=O)O)cc2)c1NC(=O)OC(C)c1ccccc1Cl (stereo unspecified)	505	557	469
CO[C@H]1/C=C/O[C@@]2(C)Oc3c(C)c(O)c4c(O)c(c(/C=N/N5CCN(C)CC5)c(O)c4c3C2=O)NC(=O)/C(C)=C\C=C\[C@H](C)[C@H](O)[C@@H](C)[C@@H](O)[C@@H](C)[C@H](OC(C)=O)[C@@H]1C	560	624	550
COC[C@@H](c1ccc(C(F)(F)F)cc1)N1CCN(C2(C)CCN(C(=O)c3c(C)ncnc3C)CC2)C[C@@H]1C	513	541	501
O=C1\C=C(/OC2=C1C=CC=C2C3=CC=CC=C3)N4CCOCC4	515	550	498
C[C@@H](N)[C@H]1CC[C@H](C(=O)Nc2ccncc2)CC1	448	487	472
CN(C)CCc1c[nH]c2ccc(C[S+](=O)([O-])N3CCCC3)cc12	513	612	490
CCn1nc(C2CCN(C(=O)CCO)CC2)nc1-c1cnc(N)c(-c2nnc(C(C)(C)C)o2)n1	507	504	387
COC1=C(F)C=C\2C(=C1)\N=C/3NNC(=C3\N=C2C4=CC=CC=C4Cl)/C	552	528	538
CN1C(=O)N[C@@H](Cc2c[nH]c3c(Cl)cccc23)C1=O	535	512	531
[NH2][Pt]([NH2])([Cl])[Cl]	514	576	528
OC(=O)C(CC/1=C/C(=O)NC2=CC=CC=C12)NC(=O)C3=CC=C(Cl)C=C3 (stereo unspecified)	483	610	521
Cc1ccc(C)c(OCCCC(C)(C)C(=O)O)c1	572	661	569
CC1COC2=C3N1\C=C(C(O)=O)/C(=O)C3=CC(=C2N4CCN(C)CC4)F (stereo unspecified)	517	537	474
O=[N+]([O-])c1cn2c(n1)OC[C@@H](OCc1ccc(OC(F)(F)F)cc1)C2	523	574	528
O=C(NC1CCOCC1)c1ccc(-c2cc(-c3c[nH]nc3-c3ccccn3)ccn2)cc1	453	497	429
Nc1nc(OCc2cc(Br)cs2)c2[nH]cnc2n1	552	616	516

— the supplement of paper PMC10949913
